Experimental data published in patent publication US20100286186A1, “NOVEL DICARBOXYLIC ACID LINKED AMINO ACID AND PEPTIDE PRODRUGS OF OPIOIDS AND USES THEREOF” (Shire LLC, priority 2009, published 2010).

Columns and labels:
[1] = Plasma pharmacokinetics of meptazinol dicarboxylate linked prodrugs after oral gavage to dogs; assay type: in vivo, dog; details: 1 mg meptazinol base equivalents/kg
[2] = Plasma pharmacokinetics of meptazinol dicarboxylate linked prodrugs after oral gavage to cynomolgus monkeys; assay type: in vivo, cynomolgus monkey; details: cynomolgus monkey, oral gavage of prodrug, 1 mg meptazinol base equivalents/kg, prodrug level, BLQ = below 0.5 ng/mL
[3] = In vitro stability of dicarboxylate amino acid ester prodrugs in simulated gastric and intestinal juice, distilled water and pH 10 buffer (HPLC); details: for Simulated gastric fluid (pH 1.1): % remaining after 2 h/37° C.: pH 1.1, 2 h; for Distilled water (pH 5.9): % remaining after 2 h/20° C.: pH 5.9, 2 h; for Simulated intestinal fluid (pH 6.8): % remaining after 2 h/37° C.: pH 6.8, 2 h; for pH 10.0 buffer: % remaining after 2 h/20° C.: pH 10.0, 2 h
[4] = Comparative oral bioavailability of oxycodone from various dicarboxylate bridged amino acid prodrugs in dogs (nine-way crossover); assay type: in vivo, dog; details: 1 mg/kg oxycodone free base; for Cmax of oxycodone / T50% Cmax of oxycodone / AUC0-t of oxycodone: mean (±sd); for AUC0-t of oxycodone: t = last quantifiable time point

SMILES | Cmax ([1]; beagle, plasma, dog, oral gavage of prodrug, prodrug level, BLQ = below 0.5 ng/mL, read-out: Dog Cmax (plasma prodrug levels, in brackets)) [ng/mL] | systemic levels of the prodrug ([1]; oral gavage) | Cmax ([2]; plasma, read-out: Monkey Cmax (plasma prodrug levels, in brackets)) [ng/mL] | Dog Cmax (plasma prodrug levels, in brackets) ([1]; dog, oral gavage of prodrug, prodrug level, BLQ = below 0.5 ng/mL) | Monkey Cmax (plasma prodrug levels, in brackets) [2] | Simulated gastric fluid (pH 1.1): % remaining after 2 h/37° C. [3] [%] | Distilled water (pH 5.9): % remaining after 2 h/20° C. [3] [%] | Simulated intestinal fluid (pH 6.8): % remaining after 2 h/37° C. [3] [%] | pH 10.0 buffer: % remaining after 2 h/20° C. [3] [%] | F % (absolute oral bioavailability of oxycodone) [4] [%] | Cmax of oxycodone [4] | T50% Cmax of oxycodone [4] | AUC0-t of oxycodone [4]
CCC1(c2cccc(OC(=O)CC(C)(C)CC(=O)N[C@H](C(=O)O)C(C)C)c2)CCCCN(C)C1 (stereo partly drawn) [Meptazinol-[3,3-dimethyl-glutaryl-(S)-valine] ester] | 116 | good systemic levels of the prodrug | 43 |  |  |  |  |  |  |  |  |  | 
CCC1(c2cccc(OC(=O)/C=C/C(=O)N[C@H](C(=O)O)C(C)C)c2)CCCCN(C)C1 (stereo partly drawn) [Meptazinol-[fumaryl-(S)-valine] ester] |  |  |  | BLQ | BLQ |  |  |  |  |  |  |  | 
COc1ccc2c3c1O[C@H]1C(OC(=O)CCC(=O)N4CCC[C@H]4C(=O)O)=CC[C@@]4(O)[C@@H](C2)N(C)CC[C@]314 [Oxycodone succinyl proline ester] |  |  |  |  |  | 98 | 100 | 96 | 80 | 20.8 | 20.1 (±4.60) ng/mL | 3.4 (±0.9) h. | 75.2 (±13.7) h. * ng/mL
CC[C@H](C)[C@H](NC(=O)CCCC(=O)OC1=CC[C@@]2(O)[C@H]3Cc4ccc(OC)c5c4[C@@]2(CCN3C)[C@H]1O5)C(=O)O [Oxycodone-Glutaryl-Ile Enol Ester, oxycodone-[glutaryl-(S)-isoleucine]enol ester] |  |  |  |  |  | 98 | 100 | 80 | 80 | 37.4 | 46.8 (±15.0) ng/mL | 2.8 (±0.2) h. | 135.7 (±27.9) h. * ng/mL
COc1ccc2c3c1O[C@H]1C(OC(=O)CCCC(=O)N[C@H](C(=O)O)C(C)C)=CC[C@@]4(O)[C@@H](C2)N(C)CC[C@]314 [Oxycodone-Glutaryl-Val Enol Ester, oxycodone-[glutaryl-(S)-valine] enol ester] |  |  |  |  |  | 98 | 100 | 87 | 75 |  |  | 2.9 (±0.3) h. | 
CC[C@H](C)[C@H](NC(=O)CCC(=O)OC1=CC[C@@]2(O)[C@H]3Cc4ccc(OC)c5c4[C@@]2(CCN3C)[C@H]1O5)C(=O)O [Oxycodone-Succinyl-Ile Enol Ester, oxycodone-[succinyl-(S)-isoleucine] enol ester] |  |  |  |  |  | 98 | 100 | 91 | 66 | 36.0 | 57.9 (±8.7) ng/mL | 1.6 (±0.4) h. | 130.6 (±25.6) h. * ng/mL
COc1ccc2c3c1OC1C(OC(=O)CCC(=O)N[C@@H](CC(C)C)C(=O)O)=CC[C@@]4(O)[C@@H](C2)N(C)CC[C@]314 (stereo partly drawn) [Oxycodone-Succinyl-Leu Enol Ester, oxycodone-[succinyl-(S)-leucine]enol ester] |  |  |  |  |  | 98 | 100 | 78 | 68 | 39.3 | 60.9 (±15.0) ng/mL | 1.9 (±0.2) h. | 142.5 (±28.4) h. * ng/mL
COc1ccc2c3c1OC1C(OC(=O)CCC(=O)N[C@@H](CCSC)C(=O)O)=CC[C@@]4(O)[C@@H](C2)N(C)CC[C@]314 (stereo partly drawn) [Oxycodone-Succinyl-Met Enol Ester, oxycodone-[succinyl-(S)-methionine]enol ester] |  |  |  |  |  | 99 | 100 | 84 | 58 | 49.8 | 68.3 (±21.1) ng/mL | 2.3 (±0.8) h. | 180.6 (±37.7) h. * ng/mL
COc1ccc2c3c1O[C@H]1C(OC(=O)CCC(=O)N[C@@H](Cc4ccccc4)C(=O)O)=CC[C@@]4(O)[C@@H](C2)N(C)CC[C@]314 [Oxycodone-Succinyl-Phe Enol Ester, oxycodone-[succinyl-(S)-phenylalanine]enol ester] |  |  |  |  |  | 99 | 100 | 3 | 65 |  |  |  | 
